Results from patent US9707244B2, “Compositions and methods for treating conditions that affect epidermis” (Gencia Corporation, priority 2013, dated 2017).

Tests used:
[1] = tested on: C57BL/6J mice; test: Forced treadmill endurance test; type: in vivo; conditions: 10, 20, 30 mg/kg p.o. once daily for 30 days
Method: Group Setting: C57BL/6J mice were randomly assigned into five groups with different treatment started with balanced full-paw and fore-paw grip strength. Seventy five female mice were dosed at 4 PM for 30 consecutive days (qd). • 1. Vehicle (p.o. via oral gavage once daily for 30 days, n=15) • 2. Creatine (300 mg/kg, p.o. via oral gavage once daily for 30 days, n=15) • 3. Mitocreatine (10 mg/kg, p.o. via oral gavage once daily for 30 days, n=15) • 4. Mitocreatine (20 mg/kg, p.o. via oral gavage once daily for 30 days, n=15) • 5. Mitocreatine (30 mg/kg, p.o. via oral gavage once daily for 30 days, n=15). 75 mice (group 1-5) were tested on the treadmill with a previously optimized protocol as described below. The mice were habituized to the treadmill at two separate occasions, with a habituation protocol. Mice were allowed to acclimate to the testing room for at least 30 min before tested. Mice were initially placed on a treadmill running at 5 m/min for 2 minutes. The treadmill belt was set horizontally. The treadmill speed was then increased to 20 m/min in […] at steps of 5 m/min in every 10 sec with the shocking grid set at 0.2 mA. Mice were allowed to run for 20 minutes. […] The total running time until exhaustion was recorded. […] Data were expressed as Mean±S.E.M. and analyzed with one-way ANOVA followed by Bonferroni test compared to vehicle group, *P<0.05, **P<0.01 (FIG. 32).

[2] = tested on: BJ human fibroblast cells; test: Survival of fibroblasts treated with chemotherapeutic agents (DAPI fluorescence); type: cell-based; conditions: 48 hours, added simultaneously
Method: Fibroblasts were incubated with increasing amounts of Mitocreatine and certain anti-neoplastic agents, such as Cetuximab, Gemcitabine and Temozolomide. After incubation, cells were washed and the number of adherent (i.e. surviving) cells was assessed by DAPI fluorescence, which was measured utilizing a plate reader (PHERA Star FS from BMG Labtech). For these experiments two kinds of cells were used. Either the Human hepatocellular liver carcinoma cell line HepG2, or the BJ human fibroblast cells, which are established from normal human foreskin. […] Mitocreatine and the antineoplastic agent were added simultaneously.

[3] = tested on: EpiDerm Full Thickness 400 (EFT-400) tissues; test: Mattek full-thickness skin model (EFT-400) skin thickness; type: cell-based; conditions: 25 nM with corticosteroid, 14 days; on average; p<0.001
Method: Following the protocol of Schoepe, we used the FTSM model to determine if co-treatment with Mitocreatine would reduce the loss in skin thickness produced by glucocorticoids.
2.5 mL of EpiDerm Full Thickness 400 (EFT-400) medium was dispensed into each well of the four 6-well plates aseptically in the tissue culture hood. The plates containing the EFT-400 tissues were removed from their plastic packaging and transferred using sterile forceps into the 6-well plates containing the 2.5 mL of EFT-400 media, making sure that no agarose adheres to the insert and that the media makes full contact with the underside of the tissue insert membrane (no air bubbles under the insert). The apical surface of the tissue should remain exposed to air (no media should be added to the side of the insert).
The tissues were equilibrated overnight at 37° C., 5% CO2. Treatment conditions are listed below in Table 5.
Day 2-13: The plates were visually examined and the media containing the test compounds was replenished each day.
Day 15: The inserts were dislodged from the support and the tissue carefully removed from the support with a scalpel.
The tissues were placed in 50 mL conical tubes containing 10% phosphate buffered formalin and sent for sectioning, histological processing and H&E staining Slides were visualized using a Leica Stereoscope equipped with a digital camera. Images were acquired and measured using ExoLabs software. Data was tabulated in Excel and the results were analyzed.

[4] = tested on: adult participants; test: Double-blind, randomized, placebo-controlled study of 0.1% Mitocreatine lotion on the dorsum of the hand; type: in vivo, human
Method: This was followed by a double-blind, randomized, placebo-controlled safety and efficacy trial of 0.1% once-daily topical application of mitocreatine to the dorsum of hands. […]. After obtaining informed consent, participants were interviewed by a physician for screening for history of skin disease, allergy and general medical issues. An initial evaluation of skin on the dorsum of the hand was performed. Qualifying participants were issued the test articles and self-assessment forms, and instructed to apply the “Right hand” and “Left hand” vial contents to the dorsum of respective hands once daily, preferably in the evening. Participants were allowed the use of other cosmetics. Once a week the participants filled out the self-assessment forms as instructed during the initial evaluation. The questions in the forms pertained to comparisons of wrinkling, color, pigmented lesions, hydration, roughness and elasticity of skin between right and left hand. One question also elicited the subjective overall impression of skin appearance (better vs. worse) between the hands. […] The participants and the evaluator were blinded to the treated side until after the exit evaluation was finished.
Before the start of study a set of 30 consecutively numbered pairs of bottles containing drug or placebo creams was generated. Of these 30 pairs of bottles 15 pairs treated the right side treated and 15 pairs treated the left side with the drug. The order of right vs. left treatment pairs was random. Participants were assigned a number in the order of recruitment. 17 subjects participated in the study, whereof 15 completed the study. Two subjects dropped out of the study due to non-study related causes. Of the 15 remaining individuals, 9 had their right hand treated whereas 6 had their left hand treated. Data from initial and exit evaluations and self-report forms were tabulated and analyzed using Fisher's exact test and Pearson's chi-squared test. Skin on the dorsum of participants' hands was evaluated by a physician at the initial evaluation and at the conclusion of the study. None of the volunteers had lesions disqualifying from participation (neoplasm, large vascular lesions, wounds, burns, large scars).
The weekly self-report forms included questions about the following adverse outcomes: itching, redness, pain, swelling, blistering, other discoloration, skin cracking and dryness. Participants were also provided with a contact number and instructed to immediately report any of the listed or other worrisome events.

pathological changes noted by the evaluating physician ([4]; 0.1% lotion once daily, final follow-up visit): No pathological changes
SMILES: CN(CC(=O)NCCC[P+](c1ccccc1)(c1ccccc1)c1ccccc1)C(=N)N.Cl.[Cl-] [Mitocreatine, N^2-[ammonio(imino)methyl]-N^2-methyl-N-[3-(triphenylphosphonio)propyl] glycinamide dichloride]
endurance (total running time) [1]: Increases Endurance | survival of fibroblasts ([2]; Gemcitabine (80 μM)): improved the survival | survival of fibroblasts ([2]; Temozolomide (1 mM)): improved the survival | survival of fibroblasts ([2]; high concentrations of Cetuximab): improved the survival | improvement of skin thickness [3]: 50% | adverse outcomes reported by participants ([4]; 0.1% lotion once daily, four weeks): No adverse outcomes | participants who correctly identified the treated hand ([4]; 13/15, p=0.0074 by binomial test): 87% | participants with improvement in wrinkles ([4]; drug hand, 7/15, p=0.0033): 45% | participants with an improvement in general skin health ([4]; drug hand, 11/15, p=0.00025): 73% | participants with improvement in thickness ([4]; drug hand, 13/15, p=0.0029): 87% | participants with improvement in tightness ([4]; drug hand, 13/15, p=0.019): 87% | participants reporting an improvement in at least two measures ([4]; drug hand, 14/15, 0.1% lotion, four weeks, p=0.0142): 93%
